Experimental data published in a melting point compilation (Tetko et al.; mined from patent text by program, amines drawn as free bases though some values may be those of a salt).

| Structure (SMILES) | melting point [°C] |
| --- | --- |
| O=c1[nH]ncc2[nH]c(-c3ccc(OC(F)F)c(OC4CC4)c3)c(Cc3ccccc3)c12 | 215 to 217 |
| Cn1nc(Nc2cc(Cl)n[nH]c2=O)cc1CN1CCC1 | 140 to 141 |
| Cn1c(Br)c(C#N)c(Br)c1C#N | 175 to 178 |
| COc1ccc2c(c1)C(=O)c1ccc(Nc3ccc(F)c(F)c3F)cc1CC2 | 128 |
| CCCCCCCCCCCCCCCCCCn1c(C)c(CC(=O)NN)c2cc(OC)ccc21 | 121 to 123 |
| O=c1nc(-c2ccc(N3CCCC3)nc2)sc2ccccc12 | 221 to 223 |
| COC(=O)COc1ccc([C@H]2c3ccc(O)cc3OC[C@H]2c2ccccc2)cc1 (racemic) | 133 to 134 |
| O=C(c1ccccc1)c1cnc2c(c1)CCC(c1ccc(Cl)c(Cl)c1)O2 (configuration not stated) | 155 to 158 |
| Nc1nc(OCc2cccs2)ncc1F | 92 to 94 |
| CCCc1c(OCCCCCc2ccccc2CCC(=O)O)ccc2c1OCCC2=O | 94 to 96 |
| COc1ccc(C2(C#Cc3cccc(-c4nnc(C)s4)c3)CCC(O)CC2)cc1OC1CCCC1 (configuration not stated) | 129 to 130 |
| O=C(CCc1ccc(O)c(C=Nc2ccccc2O)c1)ON1C(=O)CCC1=O | 170 |
| CCCCNC(=O)NS(=O)(=O)c1c(SC)cccc1SC | 151 to 154 |
| O=C(O)Cc1c(C(=O)O)c2cc(Oc3ccc(OC(F)(F)F)cc3)ccc2n1-c1ccc(N2CCCCC2)cc1 | > 200 |
| N[C@@H](Cc1cccc(OCC(F)(F)C(F)F)c1)[C@H](O)c1ccc(F)cc1 (racemic) | 77 to 78 |
| CC1(C)OC(=O)Nc2c(Br)cc(-c3ccc(F)c(Cl)c3)cc21 | 194 to 195 |
| CC(C)c1cccc(C(C)C)c1NC(=O)CN1CCCN(CCCSc2nc3cccc(C(F)(F)F)c3o2)CC1 | 77 to 79 |
| CC(=O)n1nc(S(=O)(=O)Cl)nc1N | 166 to 168 |
| Cc1ccc(S(=O)(=O)c2ccc3c(c2)[C@@H](N2CCCC2=O)[C@H](O)C(C)(C)O3)cc1 (relative stereo) | 242 to 243 |
| CN(C)c1ccc(-c2nc(S)nnc2-c2ccc(F)cc2)cc1 | 262 to 264 |
| C=C[C@@H]1Oc2ccccc2[C@H]1CC(=O)O (relative stereo) | 79 to 81 |
| CCCCC1=NC2(CCCC2)C(=O)N1Cc1ccc(-c2ccccc2S(=O)(=O)Nc2onc(C)c2C)c(OCC(C)C)c1 | 58 to 61 |
| CC(=O)Nc1cccc(-n2cccc2)c1 | 134 to 136 |
| N#Cc1ccccc1OCC(O)CN1CCN(c2ncccc2F)CC1 (configuration not stated) | 68 to 70 |
| CC(=O)SC(CC(=O)c1ccc(Cl)c(Cl)c1)C(=O)O (configuration not stated) | 102 to 105 |

| Structure (SMILES) | melting point [°C] |
| --- | --- |
| CCOC(=O)C1=C(C)NN=C(c2ccco2)C1c1ccccc1 (configuration not stated) | 158 |
| COc1ccc2nc(Cl)c(C=NO)cc2c1 | 195 |
| COc1ccc(N2CCN(c3ccc(-n4cnnc4S)cc3)CC2)cc1 | 232 |
| CCOC(=O)C(CO)c1ccc(OCC)cc1 (configuration not stated) | 35 to 36 |
| CNC(CC(C)C)c1nc(-c2ccc3c(c2)Nc2ccccc2O3)cs1 (configuration not stated) | 143 to 147 |
| Cc1ccc2c(c1)C(C(=S)Nc1c(C(C)C)cccc1C(C)C)c1ccccc1CO2 (configuration not stated) | 140 |
| CC1Cc2ccc(Cl)cc2C(c2ccc([N+](=O)[O-])cc2)=NN1C(=O)C(F)(F)F (configuration not stated) | 150 to 152 |
| O=C1N(CC2CCOCC2)c2ccccc2C12COc1cc3c(cc12)OCO3 (configuration not stated) | 142 to 144 |
| CCCCn1c(=O)c(NC(=O)Nc2c(C(C)C)cc(CN)cc2C(C)C)c(-c2cccc(OC)c2)c2cccnc21 | 186 to 187 |
| CCC(=O)N(C)c1cccc(-c2nc(=O)c3ccccc3s2)n1 | 201 |
| COC(=O)C1=C(O)CCc2ccc(OC)cc21 | 48 to 48.5 |
| Cc1ccc(-c2c(-c3ccc(S(C)(=O)=O)cc3)cnn(-c3ccc(F)c(F)c3)c2=O)cc1 | 190 to 192 |
| CC(=O)C(=NNc1ccccc1)C(=O)NCc1ccccc1 | 101 to 103 |
| NS(=O)(=O)c1ccc(N2CC(=O)N(C3CCCCC3)C2=O)cc1 | 237 to 238 |
| NC(=O)[C@@H]1[C@H](Nc2ccnc3[nH]c(-c4cccc(CN5CCOCC5)c4)nc23)[C@H]2C=C[C@@H]1C2 | 240 to 244 |
| COc1ccc(C(=O)c2ccc(F)cc2F)c(Cl)c1Cl | 139 to 141 |
| COc1cc(-c2cn(Cc3ccccc3)c(=O)c3ccccc23)cc(OC)c1OC | 166 to 168 |
| O=c1c2cccnc2n(-c2cccc(CO)c2)c(=O)n1Cc1cccnc1 | 197 to 198 |
| Cc1ccc(F)c(-n2cnc(-c3cnc4[nH]cc(C(=O)N[C@@H](C)C(C)(C)C)c4n3)c2)c1 | 331 to 332 |
| CCC1c2cccn2-c2c(cc(F)c(F)c2F)N1S(=O)(=O)c1ccc(O)cc1 (configuration not stated) | 155 to 156 |
| CCOC(=O)C1(CC(=O)O)C(=O)N(Cc2ccc(Br)cc2F)C(=O)c2cccn21 (configuration not stated) | 142 to 144 |
| ONCc1ccc2c(c1)Cc1ccccc1-2 | 150 to 152 |
| COc1cc(N2CCCN(C[C@@H](C)O)CC2)ccc1Nc1ncc2ccc(-c3ccccc3N(C)S(C)(=O)=O)n2n1 | 93 to 99 |
| Cc1cc(-n2ccnc2)c2cccc(OCc3c(Cl)ccc(S(=O)(=O)N4CCC[C@H]4C(=O)NCC4CCN(C)CC4)c3Cl)c2n1 | 86 |
| COc1ccc(-c2nnc(S)nc2-c2ccc(OC)cc2)cc1 | 228 to 232 |

| Structure (SMILES) | melting point [°C] |
| --- | --- |
| CCCOc1ccc(S(=O)(=O)C(C)C)cc1C(N)=O | 177 to 178 |
| O=C(Nc1ccc2ccc(-c3ccc(Cl)cc3)nc2n1)c1ccccc1 | 156 to 158 |
| COc1c(C)c(C=O)c(OC)c2ccccc12 | 95 to 96 |
| COC(=O)c1ccc(/C=C(\C)c2ccc3c(c2)SCCCN3C)cc1 | 97 to 98 |
| C[C@](N)(Cc1ccccc1)C(=O)O | 137 to 138 |
| O=NN1CCN(Cc2c[nH]c3ccccc23)CC1 | 116 to 118 |
| COc1ccc(C2=NN(Cc3ccccc3)C(=O)[C@H]3CCCC[C@@H]23)cc1OC1CCCC1 (relative stereo) | 91 to 92 |
| CCOc1ccc(C2=NNC(=O)CC2)cc1OCC | 142 to 143 |
| CCCc1cc(CCC)c2oc(C(=O)c3ccc(OC)cc3)c(C)c2c1O | 119 to 121 |
| COC(=O)CC[C@H](NC(=O)c1ccc(C(CO)CCCc2c(N)nc(N)nc2O)cc1)C(=O)OC (some centres not stated) | 104 |
| COc1cc(OC)nc(C2(C#N)OC(=O)c3c(-c4cccs4)ccnc32)n1 (configuration not stated) | 187 to 188 |
| COC(=O)CCc1cn(Cc2ccc(C(=O)OC(C)(C)C)cc2OC)c2cc(C(=O)NCC3CCCC3)ccc12 | 58 to 60 |
| O=CNc1cccc(C(=NOC(=O)C(Cl)Cl)C(=O)O)n1 | 88 to 90 |
| O=C(CC1CCN(Cc2ccccc2)CC1)c1ccc(N2CCCC2)cc1 | 110 to 112 |
| COc1ccc(C2=NN(c3ccc(OCCCCBr)cc3)C(=O)[C@@H]3CC=CC[C@H]23)cc1OC | 38 to 43 |
| O=[N+]([O-])c1cnc(Sc2n[nH]c(-c3cccs3)n2)s1 | 179 to 181 |
| Oc1cnccc1CCCOc1cccnc1Sc1cccc(Br)c1 | 169 to 171 |
| CS(=O)(=O)C1(F)Cc2cc(Cl)ccc2C1=O (configuration not stated) | 150 |
| Cc1ccc(S(=O)(=O)Oc2ccc(C(c3ccc(OS(=O)(=O)c4ccc(C)cc4)c([N+](=O)[O-])c3)(C(F)(F)F)C(F)(F)F)cc2[N+](=O)[O-])cc1 | 206 to 208 |
| N#CCCC1(C(N)=O)c2ccccc2-c2ccccc21 | 148 to 152 |
| Cc1c(OCC2=NCCN2)ccc(Br)c1NS(C)(=O)=O | 272 |
| O=S(=O)(c1cc(Br)[nH]c1-c1ccc(Cl)cc1)C(F)(F)F | 73 to 76 |
| CC1(C)Cc2ccc(Cl)cc2C=[N+]1[O-] | 88 to 89 |
| ClCCCOc1cccc2cccnc12 | 69 to 71 |
| CCOCc1nc2c(N)nc(C)c(C)c2n1CCNC(=O)Nc1ccccc1 | 110 |

| Structure (SMILES) | melting point [°C] |
| --- | --- |
| Cc1cc(C(=O)NCO)ncc1C(c1c(F)ccc(F)c1F)S(=O)(=O)c1ccc(F)c(F)c1 (configuration not stated) | 119 to 120 |
| C=C(Cn1cncn1)Cn1cncn1 | 52 |
| CC[Si](CC)(CC)c1ccc2c(c1)cc(C(=O)Nc1ccc(N3CCC3)nc1)n2Cc1cccc(F)c1 | 166 to 168 |
| CON=C(c1ccc2c(c1)sc(=O)n2CCOc1ccc(CC(OCC(F)(F)F)C(=O)O)cc1)C1CC1 (configuration not stated) | 33 to 34 |
| CC1=Nc2ccccc2C(=O)C1 | 198 to 200 |
| CCN1c2ncccc2C(=O)Nc2c(C)cc(N3CCCC(CO)C3)nc21 (configuration not stated) | 194 to 197 |
| COC(=O)c1cc(-c2ccncc2)sc1-c1ccncc1 | 133 to 135 |
| N#CCCNC(=O)c1n[nH]cc1NC(=O)C1CCCC1 | 180 to 181 |
| O=C(O)C(=O)c1ccc2c(c1)CCS2 | 122 to 123 |
| CCN1c2ncc(CCc3cnc4ccccc4c3)cc2C(=O)N(C)c2ccc(F)nc21 | 154 to 156 |
| CNn1cc(C(=O)O)c(=O)c2cc3c(cc21)OCO3 | > 300 |
| O=C(NC(=O)c1c(Cl)cccc1Cl)Nc1cc(-c2ccc(C(F)(F)F)cc2)on1 | 227 to 230 |
| CNC(=O)Nc1snc(N2CCCC2)c1C#N | 239 |
| CC(CC1CCOCC1)(c1ccc(S(C)(=O)=O)cn1)c1ccc(-c2ccccn2)[nH]1 (configuration not stated) | 135 to 136 |
| CC(C(=O)O)c1cccc(S(=O)(=O)c2ccccc2Cl)c1O (configuration not stated) | 180 to 181 |
| CCCCc1cc(=O)c(C(=O)OCC)cn1Cc1ccc(-c2ccccc2C(=O)OC(C)(C)C)cc1 | 80 to 81 |
| CCCCC1NC(C(=O)O)Cc2c1[nH]c1ccccc21 (configuration not stated) | 204 to 205 |
| COc1ccc(C2=NN(C3CCN(CC(N)=O)CC3)C(=O)C(C)(C)C2)c2c1OC(C)(C)C2 | 215 to 216 |
| O=C(NS(=O)(=O)C(F)(F)F)c1cccc([N+](=O)[O-])c1 | 80 to 83 |
| Cc1cccc(Nn2c(-c3ccccc3)c(C)[nH]c2=S)c1 | 206 |
| CC(=O)SCC(CCCc1ccccc1)C(=O)Nc1cccc(C(=O)O)c1 (configuration not stated) | 142 to 145 |
| CCCCc1ncc(/C=C(\Cc2ccc([N+](=O)[O-])cc2)C(=O)O)n1Cc1ccccc1Cl | 207 to 208 |
